Where two headings read alike, the source gives them in different places.

In one assay the target is T1, human OX2 receptor (Homo sapiens, UniProt O43614).
T1 construct: expressed in transfected cells; host or cells: CHO cells
T1 sequence (O43614 1-444): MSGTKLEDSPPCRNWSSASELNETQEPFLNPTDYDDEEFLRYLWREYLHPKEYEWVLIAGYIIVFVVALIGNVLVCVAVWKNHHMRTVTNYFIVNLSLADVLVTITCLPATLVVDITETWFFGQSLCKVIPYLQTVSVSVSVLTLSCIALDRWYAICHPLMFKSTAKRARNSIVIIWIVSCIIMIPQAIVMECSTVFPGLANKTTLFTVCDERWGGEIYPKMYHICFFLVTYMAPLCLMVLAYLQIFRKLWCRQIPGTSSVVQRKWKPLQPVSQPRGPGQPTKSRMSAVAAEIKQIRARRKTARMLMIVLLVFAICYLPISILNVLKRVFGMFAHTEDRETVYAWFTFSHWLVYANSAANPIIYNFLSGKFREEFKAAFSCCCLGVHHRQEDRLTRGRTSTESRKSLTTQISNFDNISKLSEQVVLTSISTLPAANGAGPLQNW
Kind of assay: Measurement of orexin receptor antagonistic activity (calcium fluorescence, FLIPRtetra). The following applies: CHO, read-out: Human Orexin2 receptor inhibition (at 10 μM). The format is cell-based. The procedure: (§1) Measurement of Orexin Receptor Antagonistic Activity
(§2) CHO cells forcibly expressing human OX1 receptor or human OX2 receptor were seeded in each well of 384 well black transparent bottom plate (BD Falcon) at 7,500 cells/well, and cultured for one day in a 5% CO2 incubator at 37° C. […] The plate was stood for 30 min in a 5% CO2 incubator at 37° C., and further stood at room temperature for 30 min. A test compound prepared by diluting with assay buffer B (HBSS, 20 mM HEPES, 0.1% BSA) was added at 10 μL/well, and then OX-A (OX1 receptor, final concentration; 1 nM) or OX-A (OX2 receptor, final concentration; 0.3 nM) was added at 10 μL/well, and the fluorescence value was measured by FLIPRtetra (Molecular Devices) every one sec for 2 min.

For a further assay, the target named is T2, human OX1 receptor (Homo sapiens, UniProt O43613).
T2 construct: expressed in transfected cells; host or cells: CHO cells
T2 sequence (O43613 1-425): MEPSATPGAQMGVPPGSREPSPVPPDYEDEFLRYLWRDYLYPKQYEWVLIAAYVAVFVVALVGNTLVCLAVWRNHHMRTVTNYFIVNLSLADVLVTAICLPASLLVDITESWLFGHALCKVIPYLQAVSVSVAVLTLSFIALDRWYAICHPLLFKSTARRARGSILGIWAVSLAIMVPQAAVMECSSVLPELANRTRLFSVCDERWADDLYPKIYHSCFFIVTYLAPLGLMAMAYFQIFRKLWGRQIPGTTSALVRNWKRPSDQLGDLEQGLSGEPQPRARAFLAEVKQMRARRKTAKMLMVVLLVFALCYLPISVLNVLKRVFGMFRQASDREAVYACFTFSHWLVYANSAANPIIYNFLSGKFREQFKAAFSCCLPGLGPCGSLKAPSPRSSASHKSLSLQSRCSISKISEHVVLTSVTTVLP
Described as above. The following applies: CHO, read-out: Human Orexin1 receptor inhibition (at 10 μM). The format is cell-based. The procedure:
as §1, §2

[1] abbreviates: 10 μM test compound, CHO cells expressing human OX2 receptor, OX-A 0.3 nM.
Where [2] appears, read: 10 μM test compound, CHO cells expressing human OX1 receptor, OX-A 1 nM.

Turning to `Cc1cc(C)nc(N2CCN(C(=O)c3cc(Cl)cc(Cl)c3)CCO2)n1` [Example 56, (3,5-dichlorophenyl) (2-(4,6-dimethylpyrimidin-2-yl)-1,2,5-oxadiazepan-5-yl)methanone], the inhibition at 10 µM at human OX2 receptor (setting [1]) turned out to be 96%; on human OX1 receptor (setting [2]) it was 21%.

With `Cc1cc(C)nc(N2CCN(C(=O)c3ccccc3C)CCO2)n1` [Example 57, (2-(4,6-dimethylpyrimidin-2-yl)-1,2,5-oxadiazepan-5-yl) (2-methylphenyl)methanone], the values for the inhibition at 10 µM on human OX2 receptor and on human OX1 receptor were 58% and 10%, respectively.

Regarding `COc1ccc(Cl)cc1C(=O)N1CCON(c2nc(C)cc(C)n2)CC1` [Example 58, (5-chloro-2-methoxyphenyl) (2-(4,6-dimethylpyrimidin-2-yl)-1,2,5-oxadiazepan-5-yl)methanone], the inhibition at 10 µM stood at 99% on human OX2 receptor and 29% at human OX1 receptor.

`Cc1cc(C)nc(N2CCN(C(=O)c3ccc(Cl)cc3Cl)CCO2)n1` [Example 59, (2,4-dichlorophenyl) (2-(4,6-dimethylpyrimidin-2-yl)-1,2,5-oxadiazepan-5-yl)methanone]: the results for the inhibition at 10 µM at human OX2 receptor and on human OX1 receptor were 65% and 1%, respectively.

Turning to `COc1cccc(C(=O)N2CCON(c3nc(C)cc(C)n3)CC2)c1Cl` [Example 60, (2-chloro-3-methoxyphenyl) (2-(4,6-dimethylpyrimidin-2-yl)-1,2,5-oxadiazepan-5-yl)methanone], the inhibition at 10 µM at human OX2 receptor was 3%; at human OX1 receptor it was -1%.

For `CCOc1ccccc1C(=O)N1CCON(c2nc(C)cc(C)n2)CC1` [Example 61, (2-(4,6-dimethylpyrimidin-2-yl)-1,2,5-oxadiazepan-5-yl) (2-ethoxyphenyl)methanone], the inhibition at 10 µM stood at 94% on human OX2 receptor (setting [1]) and 22% at human OX1 receptor (setting [2]).

Regarding `Cc1cc(C)nc(N2CCN(C(=O)c3ccccc3C(F)(F)F)CCO2)n1` [Example 62], the results for the inhibition at 10 µM on human OX2 receptor (setting [1]) and on human OX1 receptor (setting [2]) were 72% and 2%, respectively.

As for `COc1c(C#N)cccc1C(=O)N1CCON(c2nc(C)cc(C)n2)CC1` [Example 63, 3-((2-(4,6-dimethylpyrimidin-2-yl)-1,2,5-oxadiazepan-5-yl)carbonyl)-2-methoxybenzonitrile], the inhibition at 10 µM at human OX2 receptor was 49%; at human OX1 receptor it was 11%.

`Cc1cc(C)nc(N2CCN(C(=O)c3cccc4ccccc34)CCO2)n1` [Example 64, (2-(4,6-dimethylpyrimidin-2-yl)-1,2,5-oxadiazepan-5-yl) (1-naphthyl)methanone]: the inhibition at 10 µM turned out to be 101% at human OX2 receptor (setting [1]) and 76% at human OX1 receptor (setting [2]).

For the compound `Cc1cc(C)nc(N2CCN(C(=O)c3cccc4ncccc34)CCO2)n1` [Example 65, (2-(4,6-dimethylpyrimidin-2-yl)-1,2,5-oxadiazepan-5-yl) (quinolin-5-yl)methanone], the values for the inhibition at 10 µM on human OX2 receptor and at human OX1 receptor were 84% and 9%, respectively.

On to `Cc1cc(C)nc(N2CCN(C(=O)c3cccc4cccnc34)CCO2)n1` [Example 66, (2-(4,6-dimethylpyrimidin-2-yl)-1,2,5-oxadiazepan-5-yl) (quinolin-8-yl)methanone], for which the inhibition at 10 µM worked out at 90% on human OX2 receptor (setting [1]) and 13% at human OX1 receptor (setting [2]).

Take `Cc1cc(C)nc(N2CCN(C(=O)c3cccc4nccnc34)CCO2)n1` [Example 67, (2-(4,6-dimethylpyrimidin-2-yl)-1,2,5-oxadiazepan-5-yl) (quinoxalin-5-yl)methanone]: the results for the inhibition at 10 µM at human OX2 receptor and at human OX1 receptor were 44% and 5%, respectively.

`Cc1cc(C)nc(N2CCN(C(=O)c3cccc4ncc(C)nc34)CCO2)n1` [Example 68, (2-(4,6-dimethylpyrimidin-2-yl)-1,2,5-oxadiazepan-5-yl) (3-methylquinoxalin-5-yl)methanone]: the inhibition at 10 µM on human OX2 receptor is 87%; at human OX1 receptor it was 28%.

`Cc1cc(C)nc(N2CCN(C(=O)c3cccc4nn(C)cc34)CCO2)n1` [Example 69, (2-(4,6-dimethylpyrimidin-2-yl)-1,2,5-oxadiazepan-5-yl) (2-methyl-2H-indazol-4-yl) methanone]: the inhibition at 10 µM on human OX2 receptor turned out to be 45%; at human OX1 receptor it was 3%.

For `Cc1cc(C)nc(N2CCN(C(=O)c3cccc4nc(C)oc34)CCO2)n1` [Example 70, (2-(4,6-dimethylpyrimidin-2-yl)-1,2,5-oxadiazepan-5-yl) (2-methyl-1,3-benzoxazol-7-yl)methanone], the inhibition at 10 µM at human OX2 receptor is 17%; at human OX1 receptor, -6%.

As to `Cc1cc(C)nc(N2CCN(C(=O)c3cccc4ccn(C)c34)CCO2)n1` [Example 71, (2-(4,6-dimethylpyrimidin-2-yl)-1,2,5-oxadiazepan-5-yl) (1-methyl-1H-indol-7-yl) methanone], the inhibition at 10 µM on human OX2 receptor came to 99%; on human OX1 receptor, 53%.

As to `Cc1cc(C)nc(N2CCN(C(=O)c3cccc4c3ccn4C)CCO2)n1` [Example 72, (2-(4,6-dimethylpyrimidin-2-yl)-1,2,5-oxadiazepan-5-yl) (1-methyl-1H-indol-4-yl) methanone], the inhibition at 10 µM on human OX2 receptor (setting [1]) is 94%; at human OX1 receptor (setting [2]), 34%.

`Cc1cc(C)nc(N2CCN(C(=O)c3cccc4nsnc34)CCO2)n1` [Example 73, 2,1,3-benzothiadiazol-4-yl (2-(4,6-dimethylpyrimidin-2-yl)-1,2,5-oxadiazepan-5-yl)methanone]: the inhibition at 10 µM is 42% at human OX2 receptor and 13% on human OX1 receptor.

On to `Cc1cc(C)nc(N2CCN(C(=O)c3cccc4c3OCC4)CCO2)n1` [Example 74, 2,3-dihydro-1-benzofuran-7-yl (2-(4,6-dimethylpyrimidin-2-yl)-1,2,5-oxadiazepan-5-yl)methanone], for which the inhibition at 10 µM amounted to 57% on human OX2 receptor (setting [1]) and 10% at human OX1 receptor (setting [2]).

In the case of `Cc1cc(C)nc(N2CCN(C(=O)c3cccc4c3OC(C)(C)C4)CCO2)n1` [Example 75, (2,2-dimethyl-2,3-dihydro-1-benzofuran-7-yl) (2-(4,6-dimethylpyrimidin-2-yl)-1,2,5-oxadiazepan-5-yl)methanone], the inhibition at 10 µM is 75% at human OX2 receptor and 10% on human OX1 receptor.

As to `Cc1cc(C)nc(N2CCN(C(=O)c3cccc4c3C(=O)N(C)C4)CCO2)n1` [Example 76, 7-((2-(4,6-dimethylpyrimidin-2-yl)-1,2,5-oxadiazepan-5-yl)carbonyl)-2-methylisoindolin-1-one], the inhibition at 10 µM came to 22% at human OX2 receptor and 6% at human OX1 receptor.

For `COc1cc2c(cc1C(=O)N1CCON(c3nc(C)cc(C)n3)CC1)CCC2` [Example 77, (2-(4,6-dimethylpyrimidin-2-yl)-1,2,5-oxadiazepan-5-yl) (6-methoxy-2,3-dihydro-1H-inden-5-yl)methanone], the inhibition at 10 µM on human OX2 receptor came to 69%; at human OX1 receptor, 12%.

Turning to `Cc1cc(C)nc(N2CCN(C(=O)c3cccc(-c4ccccc4)c3)CCO2)n1` [Example 78, biphenyl-3-yl (2-(4,6-dimethylpyrimidin-2-yl)-1,2,5-oxadiazepan-5-yl)methanone], the inhibition at 10 µM on human OX2 receptor (setting [1]) came out at 52%; at human OX1 receptor (setting [2]) it was 27%.

Take `Cc1cc(C)nc(N2CCN(C(=O)c3ccccc3-c3ccccc3)CCO2)n1` [Example 79, biphenyl-2-yl (2-(4,6-dimethylpyrimidin-2-yl)-1,2,5-oxadiazepan-5-yl)methanone]: the values for the inhibition at 10 µM on human OX2 receptor (setting [1]) and on human OX1 receptor (setting [2]) were 98% and 57%, respectively.

As for `Cc1cc(C)nc(N2CCN(C(=O)c3ccccc3-n3cccc3)CCO2)n1` [Example 80, (2-(4,6-dimethylpyrimidin-2-yl)-1,2,5-oxadiazepan-5-yl) (2-(1H-pyrrol-1-yl)phenyl)methanone], the figures for the inhibition at 10 µM on human OX2 receptor and on human OX1 receptor were 94% and 14%, respectively.

For `Cc1cc(C)nc(N2CCN(C(=O)c3ccccc3-c3ccco3)CCO2)n1` [Example 81, (2-(4,6-dimethylpyrimidin-2-yl)-1,2,5-oxadiazepan-5-yl) (2-(2-furyl)phenyl)methanone], the inhibition at 10 µM turned out to be 99% on human OX2 receptor (setting [1]) and 85% on human OX1 receptor (setting [2]).

The inhibition is the change of the read-out against control, counted positive when it falls.

These data come from patent publication US10131653B2, “Heterocyclic compound” (TAKEDA PHARMACEUTICAL COMPANY LIMITED, priority 2015, dated 2018).
